Values quoted from earlier work in patent US7358271B2, “Sulpiride pharmaceutical compositions” (Williamsburg Holdings LLC, priority 2003, dated 2008).
Where two headings read alike, the source gives them in different places.

Experiments:
[1] = healthy volunteers, oral
[2] = compared with physiological pH
[3] = oral formulations

bioavailability ([1]; after food): 27% | bioavailability ([1]; without food): 20% | pKa [2]: lower than physiological pH | absorption in the gastrointestinal tract [3]: ~30%
Compound: CCN1CCCC1CNC(=O)c1cc(S(N)(=O)=O)ccc1OC (stereo not shown) [sulpiride, N-(1-Ethyl-pyrrolidin-2-ylmethyl)-2-methoxy-5-sulfamoyl-benzamide]
